Results: US9428464B2, “Kynurenine-3-monooxygenase inhibitors, pharmaceutical compositions, and methods of use thereof” (CHDI Foundation, Inc., priority 2011, dated 2016)

Tested on: KMO
Experiment: KMO activity assay: L-Kynurenine hydroxylation to 3-Hydroxy-Kynurenine, quantified by LC/MS
Format: biochemical
Conditions: compound at 10 uM; footnote: some portion of activity of amides may be due to contribution of acid precursor
Outline: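 Enzyme: KMO from mitochondria isolated from CHO cells expressing GST-His-KMO, with L-kynurenine as substrate (stock 10 mM in 100 mM potassium phosphate, pH 7.4). Conversion to 3-hydroxy-kynurenine quantified by LC/MS multiple reaction monitoring; compound stocks 10 mM in DMSO.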

SMILES	% Inhibition at 10 uM
NC(=O)[C@@H]1CCCN1C(=O)c1cc(-c2ccc(Cl)c(Cl)c2)ncn1 [(S)-1-[6-(3,4-Dichloro-phenyl)-pyrimidine-4-carbonyl]-pyrrolidine-2-carboxylic acid amide]	99.05%
O=C(N[C@@H](CO)C(=O)O)c1cc(-c2ccc(Cl)c(Cl)c2)ncn1 [(S)-2-{[6-(3,4-Dichloro-phenyl)-pyrimidine-4-carbonyl]-amino}-3-hydroxy-propionic acid]	101.22%
C[C@H](NC(=O)c1cc(-c2ccc(Cl)c(Cl)c2)ncn1)C(=O)O [(S)-2-{[6-(3,4-Dichloro-phenyl)-pyrimidine-4-carbonyl]-amino}-propionic acid]	100.865%
O=S(=O)(Nc1cc(-c2ccc(Cl)c(Cl)c2)ccn1)c1ccccc1 [N-[4-(3,4-dichlorophenyl)pyridin-2-yl]benzenesulfonamide]	17%
Cc1ccc(S(=O)(=O)Nc2cc(-c3ccc(Cl)c(Cl)c3)ncn2)c(C)c1 [N-[6-(3,4-dichlorophenyl)pyrimidin-4-yl]-2,4-dimethylbenzene-1-sulfonamide]	56%
O=S(=O)(Nc1cc(-c2ccc(Cl)c(Cl)c2)ncn1)c1ccccc1F [N-[6-(3,4-dichlorophenyl)pyrimidin-4-yl]-2-fluorobenzene-1-sulfonamide]	103%
O=S(=O)(Nc1cc(-c2ccc(Cl)c(Cl)c2)ncn1)c1cccc(OC(F)(F)F)c1 [N-[6-(3,4-dichlorophenyl)pyrimidin-4-yl]-3-(trifluoromethoxy)benzene-1-sulfonamide]	100%
O=S(=O)(Nc1cc(-c2ccc(Cl)c(Cl)c2)ncn1)c1cccc(F)c1 [N-[6-(3,4-dichlorophenyl)pyrimidin-4-yl]-3-fluorobenzene-1-sulfonamide]	102%
CN(c1cc(-c2ccc(Cl)c(Cl)c2)ncn1)S(=O)(=O)c1ccccc1 [N-[6-(3,4-dichlorophenyl)pyrimidin-4-yl]-N-methylbenzenesulfonamide]	27%
O=S(=O)(Nc1cc(-c2ccc(F)c(Cl)c2)ncn1)c1ccccc1 [N-[6-(3-Chloro-4-fluoro-phenyl)-pyrimidin-4-yl]-benzenesulfonamide]	98%
O=C(NS(=O)(=O)c1ccccc1)c1cc(-c2cccc(Cl)c2)ncn1 [N-[6-(3-Chloro-phenyl)-pyrimidine-4-carbonyl]-benzenesulfonamide]	100.67%
CS(=O)(=O)NC(=O)c1cc(-c2cccc(Cl)c2)ncn1 [N-[6-(3-Chloro-phenyl)-pyrimidine-4-carbonyl]-methanesulfonamide]	101.58%
O=S(=O)(Nc1cc(-c2ccc(F)c(Cl)c2)ncn1)c1ccccc1F [N-[6-(3-chloro-4-fluorophenyl)pyrimidin-4-yl]-2-fluorobenzene-1-sulfonamide]	100%
CC(=O)N[C@@H]1CCN(C(=O)c2cc(-c3ccc(Cl)c(Cl)c3)ncn2)C1 [N-{(R)-1-[6-(3,4-Dichloro-phenyl)-pyrimidine-4-carbonyl]-pyrrolidin-3-yl}-acetamide]	98.55%
CN(C)CCC(=O)N[C@H]1CCN(C(=O)c2cc(-c3ccc(Cl)c(Cl)c3)ncn2)C1 [N-{(S)-1-[6-(3,4-Dichloro-phenyl)-pyrimidine-4-carbonyl]-pyrrolidin-3-yl}-3-dimethylamino-propionamide]	91.785%
CC(=O)N[C@H]1CCN(C(=O)c2cc(-c3ccc(Cl)c(Cl)c3)ncn2)C1 [N-{(S)-1-[6-(3,4-Dichloro-phenyl)-pyrimidine-4-carbonyl]-pyrrolidin-3-yl}-acetamide]	100.27%
CN1CCN(C(=O)c2cc(-c3ccc(Cl)c(Cl)c3)ncn2)CC1 [[6-(3,4-Dichloro-phenyl)-pyrimidin-4-yl]-(4-methyl-piperazin-1-yl)-methanone]	94.86%
O=C(c1cc(-c2ccc(Cl)c(Cl)c2)ncn1)N1CCc2ccc(F)cc21 [[6-(3,4-Dichloro-phenyl)-pyrimidin-4-yl]-(6-fluoro-2,3-dihydro-indol-1-yl)-methanone]	100.71%
C[C@@H]1CN(C(=O)c2cc(-c3ccc(Cl)c(Cl)c3)ncn2)C[C@H](C)N1.O=C(O)C(F)(F)F [[6-(3,4-Dichloro-phenyl)-pyrimidin-4-yl]-((3S,5R)-3,5-dimethyl-piperazin-1-yl)-methanone, trifluoro-acetic acid salt]	95.92%
O=C(c1cc(-c2ccc(Cl)c(Cl)c2)ncn1)N1CCC[C@@H](O)C1 [[6-(3,4-Dichloro-phenyl)-pyrimidin-4-yl]-((R)-3-hydroxy-piperidin-1-yl)-methanone]	99.86%
O=C(c1cc(-c2ccc(Cl)c(Cl)c2)ncn1)N1CC[C@@H](O)C1 [[6-(3,4-Dichloro-phenyl)-pyrimidin-4-yl]-((R)-3-hydroxy-pyrrolidin-1-yl)-methanone]	101.49%
O=C(c1cc(-c2ccc(Cl)c(Cl)c2)ncn1)N1CCC[C@H](O)C1 [[6-(3,4-Dichloro-phenyl)-pyrimidin-4-yl]-((S)-3-hydroxy-piperidin-1-yl)-methanone]	99.98%
O=C(c1cc(-c2ccc(Cl)c(Cl)c2)ncn1)N1CCC(C(=O)N2CCOCC2)C1 (stereo not drawn) [[6-(3,4-Dichloro-phenyl)-pyrimidin-4-yl]-[3-(morpholine-4-carbonyl)-pyrrolidin-1-yl]-methanone]	90.83%
O=C(c1cc(-c2ccc(Cl)c(Cl)c2)ncn1)N1CCN(C(=O)N2CCOCC2)CC1 [[6-(3,4-Dichloro-phenyl)-pyrimidin-4-yl]-[4-(morpholine-4-carbonyl)-piperazin-1-yl]-methanone]	40.38%
O=C(c1cc(-c2ccc(Cl)c(Cl)c2)ncn1)N1CCNCC1 [[6-(3,4-dichloro-phenyl)-pyrimidin-4-yl]-piperazin-1-yl-methanone]	71.34%
CCCCOC(=O)c1cc(-c2ccc(Cl)c(Cl)c2)ncn1 [butyl 6-(3,4-dichlorophenyl)pyrimidine-4-carboxylate]	100%
CC(C)OC(=O)c1cc(-c2ccc(Cl)c(Cl)c2)ncn1 [propan-2-yl 6-(3,4-dichlorophenyl)pyrimidine-4-carboxylate]	100%
